≈ marks a conversion by molar mass, not a printed value. Read-outs that look alike come from different tables or passages of the source.
How the values were obtained:
[1] = Acute intravenous toxicity studies in mice; type: in vivo, Swiss Albino mice (Charles River); conditions: intravenous (lateral tail vein), iodine concentration 28.2%, pH 7.0-7.2, approx. 1 ml./min, seven day observation, Litchfield and Wilcoxon
Method: (§1) Toxicity evaluations in accordance with three different techniques were carried out on aqueous solutions of the compounds of Examples I and II. The techniques utilized are described below.
Swiss Albino mice (Charles River) were dosed in the lateral tail vein with aqueous solutions of the above-noted iodinated compounds having an iodine concentration of 28.2% with a pH of 7.0-7.2. The solutions were injected at the rate of approximately 1 ml./min. […] The LD50 values were calculated by the method of Litchfield and Wilcoxon (J. of Pharmac. and Exptl. Therap. 96: 99-113, 1949).

[2] = Intracerebral toxicity in mice; type: in vivo, Swiss Albino mice (Charles River); conditions: aqueous solution, seven day observation, Litchfield and Wilcoxon
Method: as §1
Swiss Albino mice (Charles River) were used. Fixed volumes of aqueous solutions of the iodinated compounds were injected intracerebrally via a 27 gauge needle (1/4 inch in length) according to the method of Haley et al. (Br. J. of Pharmac. 12:12-15, 1957). The animals were observed immediately following injections and daily throughout a seven day observation period. The LD50 values were calculated by the method of Litchfield and Wilcoxon (J. of Pharmac. and Exptl. Therap. 96:99-113, 1949).

[3] = Intracisternal toxicity in rats; type: in vivo, Sprangue-Dawley (Carworth) rats; conditions: aqueous solution, two day observation, Litchfield and Wilcoxon
Method: as §1
Sprangue-Dawley (Carworth) rats were used. The method used was a variation of the procedure outlined by Melartin et al. (Invest. Rad. 5: 13-21, 1970). After dosing, the animals were housed individually and observed for immediate reactions and periodically for a two day observation period. The LD50 values were calculated according to the method of Litchfield and Wilcoxon (J. of Pharmac. and Exptl. Therap. 96:99-115, 1949).

[4] = Intravenous pyelographic studies in dogs; type: in vivo; conditions: dog
Method: The compounds of Examples I and II were employed in intravenous pyelographic studies carried out in dogs. At a dosage of 1000 mg.

Water solubility = type: physicochemical

Row | Structure (SMILES) | LD50 Value, I.V. (Mice) [1] | LD50 Value, Intracerebral (Mice) [2] | LD50 Value, Intracisternal (Rats) [3] | Pyelographic visualization ([4]; 1000 mg. I/kg., five minutes after injection) | solubility at 730 h (Water solubility; after standing for one month) | solubility (Water solubility; initial determination, read-out: Water solubility (initially)) | Pyelographic visualization ([4]; 155 mg. I/kg., five minutes after injection) | Pyelographic visualization ([4]; 155 mg. I/kg., one minute after injection) | solubility (Water solubility; read-out: Water solubility)
1 | CNC(=O)c1c(I)c(NC(=O)OCC(=O)[C@@H](O)[C@H](O)[C@@H](O)CO)c(I)c(C(=O)N(C)C)c1I [Example I, 1-[N-(2,4,6-triiodo-3-N,N-dimethylcarbamyl-5-N-methylcarbamyl)carbanilyl]-L-sorbose] | 3,027 mg. I/kg. body wt. | 1,450 mg. I/kg. body wt. | 13 mg. I/kg. body wt. | very good contrast of the kidneys, collecting pelvises and urinary bladder | 200 mg/mL (≈ 248 mM) | 1000 mg/mL (≈ 1240 mM) |  |  | 
2 | CNC(=O)c1c(I)c(NC(=O)OC[C@@H](O)[C@H](O)[C@H](O)[C@@H](O)C=O)c(I)c(N(C)C(C)=O)c1I [Example II, 6-[2,4,6-Triiodo-3-(N-methylacetamido)-5-(N-methylcarbamyl)carbanilyl]-D-galactose] | 2,300 mg. I/kg. body wt. | 222 mg. I/kg. body wt. | < 20 mg. I/kg. body wt. |  |  |  | a better shadow of the kidneys was seen together with partial visualization of the ureters | visualization of the kidneys | ≥ 1000 mg/mL

Reference: patent US4230845A, “Polyhydroxy-alkyl-3,5-disubstituted-2,4,6-triiodocarbanilates” (Mallinckrodt, Inc., priority 1978, dated 1980)
